From US20070219239A1, “Nitrogen-containing heterocycle derivatives, pharmaceutical compositions, and methods of use thereof as antiviral agents” (priority 2006, published 2007)
pEC50: −log10 of the molar value.

Test system: vaccinia virus
Experiment: microbe, parasite or virus in culture
Format: cell-based
Details: Orthopoxvirus vaccinia, BSC-40, in Chlorocebus sabaeus, read-out: EC50 (inhibition of viral replication)

| Compound | pEC50 |
| --- | --- |
| CC(C)C(=O)Nc1cc(C(=O)N[C@H](C)c2ccc(F)cc2)cc(-c2c[nH]c(-c3cc4ccccc4cn3)n2)c1 [Example 1] | ≥ 6.30 |
| C[C@@H](NC(=O)c1cc(Cl)cc(-c2c[nH]c(-c3cc4ccccc4cn3)n2)c1)c1ccc(F)cc1 [Example 5, N-[(1R)-1-(4-fluorophenyl)ethyl]-3-(2-isoquinoline-3-yl-1H-imidazol-4-yl)-5-chlorobenzamide] | ≥ 6.30 |
| C[C@@H](NC(=O)c1cccc(-c2c[nH]c(-c3cc4ccccc4cn3)n2)c1)c1ccc(F)cc1 [Example 6, N-[(1R)-1-(4-fluorophenyl)ethyl]-3-(2-isoquinoline-3-yl-1H-imidazol-4-yl)benzamide] | ≥ 6.30 |
| C[C@@H](NC(=O)c1cc(NC(=O)C(C)(C)C)cc(-c2c[nH]c(-c3cc4ccccc4cn3)n2)c1)c1ccc(F)cc1 [Example 15] | ≥ 6.30 |
| C[C@@H](NC(=O)c1cc(NC(=O)C(C)(C)F)cc(-c2c[nH]c(-c3cc4ccccc4cn3)n2)c1)c1ccc(F)cc1 [Example 17, N-[(1R)-1-(4-fluorophenyl)ethyl]-3-(2-isoquinoline-3-yl-1H-imidazol-4-yl)-5-(2-fluoroisobutyrylamino)benzamide] | ≥ 6.30 |
